Paper PMC3776780, “Dual p38/JNK Mitogen Activated Protein Kinase Inhibitors Prevent Ozone-Induced Airway Hyperreactivity in Guinea Pigs” (PLoS ONE, 2013)

What was measured:
[1] = test system: neuronal M2 muscarinic receptors; assay: neuronal M2 muscarinic receptor function (gallamine potentiation of vagally induced bronchoconstriction); type: in vivo, guinea pigs; settings: ozone-exposed, 30 mg/kg ip 1 h before ozone, gallamine 0.1–10 mg/kg iv
Experimental: (§1) Guinea pigs were exposed to 2 ppm ozone or filtered air for 4 hours as described previously. Physiological measurements, airway inflammation, and histological measurements were made one day after a single ozone exposure.
(§2) Animals were given 30 mg/kg intraperitoneally of the dual p38 and JNK MAPK inhibitors V-05-013, V-05-014, or V-05-015 (Vertex Pharmaceuticals, Cambridge, MA) one hour before ozone exposure (Figure 1). These compounds were chosen because of their overall kinase selectivity profile. […] Inhibitors were dissolved in 25% DMSO in phosphate buffered saline (PBS). Air exposed control animals were given 25% DMSO in PBS one hour before ozone exposure.
Recovery from administration of intravenous acetylcholine was confirmed by pulmonary inflation pressure and heart rate returning to baseline before measuring M2 muscarinic receptor function (5–10 minutes after the last dose of acetylcholine).

JAK3 = target: T1, JAK3 (Homo sapiens, UniProt P52333); assay: spectrophotometric coupled-enzyme kinase inhibition assay; type: biochemical; settings: read-out: Ki or IC50 JAK3
T1 sequence (P52333 1-1124): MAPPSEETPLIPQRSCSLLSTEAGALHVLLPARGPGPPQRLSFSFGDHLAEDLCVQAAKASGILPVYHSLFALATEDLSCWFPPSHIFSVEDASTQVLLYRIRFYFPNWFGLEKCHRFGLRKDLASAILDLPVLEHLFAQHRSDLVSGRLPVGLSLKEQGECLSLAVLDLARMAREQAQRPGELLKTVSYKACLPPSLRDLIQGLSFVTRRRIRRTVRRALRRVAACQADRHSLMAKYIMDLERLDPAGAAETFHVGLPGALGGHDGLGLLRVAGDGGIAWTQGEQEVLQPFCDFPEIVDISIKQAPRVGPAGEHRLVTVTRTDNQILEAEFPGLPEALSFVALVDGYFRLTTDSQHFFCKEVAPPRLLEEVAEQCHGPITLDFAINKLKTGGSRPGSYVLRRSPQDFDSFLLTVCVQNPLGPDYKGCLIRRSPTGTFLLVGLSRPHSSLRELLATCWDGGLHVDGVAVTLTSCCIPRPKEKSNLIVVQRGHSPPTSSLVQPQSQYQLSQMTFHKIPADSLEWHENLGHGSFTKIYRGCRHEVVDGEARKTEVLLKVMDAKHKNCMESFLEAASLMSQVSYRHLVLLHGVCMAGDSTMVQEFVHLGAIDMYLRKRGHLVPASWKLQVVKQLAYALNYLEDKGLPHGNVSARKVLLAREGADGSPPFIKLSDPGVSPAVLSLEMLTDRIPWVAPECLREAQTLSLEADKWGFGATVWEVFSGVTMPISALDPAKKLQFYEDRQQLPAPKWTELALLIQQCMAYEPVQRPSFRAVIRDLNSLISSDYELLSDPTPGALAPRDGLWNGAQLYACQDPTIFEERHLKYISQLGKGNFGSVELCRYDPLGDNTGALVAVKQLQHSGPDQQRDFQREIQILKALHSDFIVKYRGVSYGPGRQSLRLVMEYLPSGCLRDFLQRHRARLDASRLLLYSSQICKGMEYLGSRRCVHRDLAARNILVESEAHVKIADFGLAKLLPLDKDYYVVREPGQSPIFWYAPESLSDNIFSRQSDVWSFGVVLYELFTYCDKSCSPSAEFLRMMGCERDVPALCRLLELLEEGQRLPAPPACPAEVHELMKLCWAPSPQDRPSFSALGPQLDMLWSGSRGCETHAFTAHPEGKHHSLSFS
Experimental: (§3) Affinity was measured using a kinase inhibition assay. Compounds were assayed for the inhibition of various kinases using a modification of a spectrophotometric coupled-enzyme assay. In this assay, a fixed concentration of activated kinase (10–40 nM) was incubated with various concentrations of a potential inhibitor dissolved in DMSO for 10 minutes at 30°C in a buffer containing 0.1 M HEPES, pH 7.5, containing 10 mM MgCl2, 2.5 mM phosphoenolpyruvate, 200 µM NADH, 2 mM DTT, 30 µg/mL pyruvate kinase, 10 µg/mL lactate dehydrogenase, and 200 µM–500 µM EGF receptor peptide. The EGF receptor peptide has the sequence […]. The reaction was initiated by the addition of ATP equal to the ATP Km of the kinase, and the assay plate is inserted into the spectrophotometer’s assay plate compartment that was maintained at 30°C. The decrease of absorbance at 340 nm was monitored as a function of time for 10 minutes. The rate data as a function of inhibitor concentration was either fit as an IC50 or to a competitive inhibition kinetic model to determine the compound Ki (see table 1).

JAK2 = JAK2 (Homo sapiens, UniProt O60674); assay: as above; type: biochemical; settings: read-out: Ki or IC50 JAK2
Experimental: as §3

PKA = PKA (Homo sapiens, UniProt P17612); assay: as above; type: biochemical; settings: read-out: Ki or IC50 PKA
Experimental: as §3

PDK1 = PDK1 (Homo sapiens, UniProt O15530); assay: as above; type: biochemical; settings: read-out: Ki or IC50 PDK1
Experimental: as §3

FLT3 = FLT3 (Homo sapiens, UniProt P36888); assay: as above; type: biochemical; settings: read-out: Ki or IC50 FLT3
Experimental: as §3

MAPKAP2 = MAPKAP2 (Homo sapiens, UniProt P49137); assay: as above; type: biochemical; settings: read-out: Ki or IC50 MAPKAP2
Experimental: as §3

cMET = cMET (Homo sapiens, UniProt P08581); assay: as above; type: biochemical; settings: read-out: Ki or IC50 cMET
Experimental: as §3

PIM1 = PIM1 (Homo sapiens, UniProt P11309); assay: as above; type: biochemical; settings: read-out: Ki or IC50 PIM1
Experimental: as §3

IRAK = assay: as above; type: biochemical; settings: read-out: Ki or IC50 IRAK
Experimental: as §3

[2] = test system: M3 muscarinic receptor function on airway smooth muscle; assay: smooth muscle M3 muscarinic receptor function (bronchoconstriction to intravenous acetylcholine); type: in vivo, guinea pigs; settings: acetylcholine 1–10 µg/kg iv; for effect on ozone-induced potentiation of bronchoconstriction to intravenous acetylcholine: ozone-exposed, 30 mg/kg ip 1 h before ozone
Experimental: as §1, §2
Recovery from vagal stimulation was confirmed by pulmonary inflation pressure and heart rate returning to baseline before measuring smooth muscle M3 muscarinic receptor function (5–10 minutes after cessation of vagal stimulation). In vagotomized guinea pigs, M3 muscarinic receptor function on airway smooth muscle was tested by measuring bronchoconstriction after administration of acetylcholine (1–10 µg/kg iv, Sigma-Aldrich).

TIE2 = TIE2 (Homo sapiens, UniProt Q02763); assay: spectrophotometric coupled-enzyme kinase inhibition assay; type: biochemical; settings: read-out: Ki or IC50 TIE2
Experimental: as §3

EphA = assay: as above; type: biochemical; settings: read-out: Ki or IC50 EphA
Experimental: as §3

Sequence of cMET (P08581 25-1390): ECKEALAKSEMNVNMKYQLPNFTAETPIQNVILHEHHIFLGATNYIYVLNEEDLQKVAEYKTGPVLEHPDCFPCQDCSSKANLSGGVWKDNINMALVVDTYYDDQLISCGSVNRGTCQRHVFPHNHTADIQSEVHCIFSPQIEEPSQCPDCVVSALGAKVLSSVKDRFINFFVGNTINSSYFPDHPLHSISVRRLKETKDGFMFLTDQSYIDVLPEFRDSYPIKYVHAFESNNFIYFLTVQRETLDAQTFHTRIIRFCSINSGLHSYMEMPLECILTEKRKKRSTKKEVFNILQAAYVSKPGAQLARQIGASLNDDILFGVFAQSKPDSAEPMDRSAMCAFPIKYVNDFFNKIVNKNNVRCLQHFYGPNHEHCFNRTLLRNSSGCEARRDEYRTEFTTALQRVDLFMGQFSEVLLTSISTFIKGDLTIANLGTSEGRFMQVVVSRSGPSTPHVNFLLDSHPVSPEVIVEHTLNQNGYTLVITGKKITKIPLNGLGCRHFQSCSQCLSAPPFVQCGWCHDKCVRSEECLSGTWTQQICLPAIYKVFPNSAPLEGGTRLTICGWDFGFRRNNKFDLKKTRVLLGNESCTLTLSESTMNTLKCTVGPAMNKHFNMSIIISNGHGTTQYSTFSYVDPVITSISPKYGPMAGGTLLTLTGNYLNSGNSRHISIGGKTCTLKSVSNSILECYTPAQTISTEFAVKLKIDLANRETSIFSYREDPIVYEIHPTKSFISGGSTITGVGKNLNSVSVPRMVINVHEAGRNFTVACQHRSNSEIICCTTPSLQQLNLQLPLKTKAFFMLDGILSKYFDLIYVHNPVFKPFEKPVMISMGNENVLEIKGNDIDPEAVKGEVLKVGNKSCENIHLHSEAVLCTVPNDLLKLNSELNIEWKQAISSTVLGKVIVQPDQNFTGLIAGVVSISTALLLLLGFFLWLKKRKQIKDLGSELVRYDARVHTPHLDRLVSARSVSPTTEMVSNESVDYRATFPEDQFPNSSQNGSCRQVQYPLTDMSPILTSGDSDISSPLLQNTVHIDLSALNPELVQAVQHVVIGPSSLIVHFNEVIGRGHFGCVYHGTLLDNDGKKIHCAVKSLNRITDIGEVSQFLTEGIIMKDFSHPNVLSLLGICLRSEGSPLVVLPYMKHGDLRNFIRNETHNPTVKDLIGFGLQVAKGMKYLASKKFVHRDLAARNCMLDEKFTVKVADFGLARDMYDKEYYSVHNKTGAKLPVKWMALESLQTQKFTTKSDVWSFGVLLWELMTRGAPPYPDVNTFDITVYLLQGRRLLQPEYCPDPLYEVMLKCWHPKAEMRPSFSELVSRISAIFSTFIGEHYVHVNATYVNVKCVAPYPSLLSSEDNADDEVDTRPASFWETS
Sequence of PIM1 (P11309 whole entry, species assumed): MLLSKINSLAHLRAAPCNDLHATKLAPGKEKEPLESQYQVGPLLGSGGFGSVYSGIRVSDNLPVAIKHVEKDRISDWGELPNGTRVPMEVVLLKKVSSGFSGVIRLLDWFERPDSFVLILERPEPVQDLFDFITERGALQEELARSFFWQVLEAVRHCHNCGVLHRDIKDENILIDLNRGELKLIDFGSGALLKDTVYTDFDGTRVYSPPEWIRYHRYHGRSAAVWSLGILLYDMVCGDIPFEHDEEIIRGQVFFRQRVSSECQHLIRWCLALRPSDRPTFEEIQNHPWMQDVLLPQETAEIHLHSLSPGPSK
Sequence of MAPKAP2 (P49137 whole entry): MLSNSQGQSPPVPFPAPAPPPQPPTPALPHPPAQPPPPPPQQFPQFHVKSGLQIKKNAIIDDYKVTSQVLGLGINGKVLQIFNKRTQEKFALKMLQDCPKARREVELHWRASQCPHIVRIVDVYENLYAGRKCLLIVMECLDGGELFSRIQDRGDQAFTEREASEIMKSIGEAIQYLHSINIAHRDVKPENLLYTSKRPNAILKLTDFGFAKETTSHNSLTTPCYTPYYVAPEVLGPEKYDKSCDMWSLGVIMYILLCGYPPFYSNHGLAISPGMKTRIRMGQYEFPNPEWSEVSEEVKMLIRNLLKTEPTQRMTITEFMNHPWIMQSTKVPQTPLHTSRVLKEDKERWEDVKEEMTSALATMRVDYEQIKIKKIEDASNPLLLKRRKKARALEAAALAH
Sequence of FLT3 (P36888 27-993, species assumed): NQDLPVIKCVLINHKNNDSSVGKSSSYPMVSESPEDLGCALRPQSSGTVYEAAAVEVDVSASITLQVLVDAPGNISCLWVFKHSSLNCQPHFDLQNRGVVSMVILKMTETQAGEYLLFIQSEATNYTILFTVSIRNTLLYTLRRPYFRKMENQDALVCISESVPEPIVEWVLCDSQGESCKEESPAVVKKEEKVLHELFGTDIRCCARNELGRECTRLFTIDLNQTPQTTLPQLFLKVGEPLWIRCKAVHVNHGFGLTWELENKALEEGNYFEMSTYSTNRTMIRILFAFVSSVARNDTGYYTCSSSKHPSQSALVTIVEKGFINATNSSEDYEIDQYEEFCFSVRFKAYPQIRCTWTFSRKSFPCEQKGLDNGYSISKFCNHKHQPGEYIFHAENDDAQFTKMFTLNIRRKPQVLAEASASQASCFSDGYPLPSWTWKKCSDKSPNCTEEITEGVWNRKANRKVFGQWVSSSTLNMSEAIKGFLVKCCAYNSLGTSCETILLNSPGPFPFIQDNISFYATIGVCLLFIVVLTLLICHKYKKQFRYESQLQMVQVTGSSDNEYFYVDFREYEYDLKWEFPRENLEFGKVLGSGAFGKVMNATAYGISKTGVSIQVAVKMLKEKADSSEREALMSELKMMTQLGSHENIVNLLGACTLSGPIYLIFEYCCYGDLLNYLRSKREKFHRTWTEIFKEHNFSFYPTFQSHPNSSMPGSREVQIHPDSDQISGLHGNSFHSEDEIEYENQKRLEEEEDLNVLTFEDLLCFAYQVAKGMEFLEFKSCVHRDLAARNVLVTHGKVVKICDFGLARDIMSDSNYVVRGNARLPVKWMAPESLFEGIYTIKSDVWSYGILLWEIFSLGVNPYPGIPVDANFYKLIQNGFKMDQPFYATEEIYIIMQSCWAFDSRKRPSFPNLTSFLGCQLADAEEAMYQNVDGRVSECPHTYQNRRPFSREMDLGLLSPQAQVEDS
Sequence of TIE2 (Q02763 23-1124, species assumed): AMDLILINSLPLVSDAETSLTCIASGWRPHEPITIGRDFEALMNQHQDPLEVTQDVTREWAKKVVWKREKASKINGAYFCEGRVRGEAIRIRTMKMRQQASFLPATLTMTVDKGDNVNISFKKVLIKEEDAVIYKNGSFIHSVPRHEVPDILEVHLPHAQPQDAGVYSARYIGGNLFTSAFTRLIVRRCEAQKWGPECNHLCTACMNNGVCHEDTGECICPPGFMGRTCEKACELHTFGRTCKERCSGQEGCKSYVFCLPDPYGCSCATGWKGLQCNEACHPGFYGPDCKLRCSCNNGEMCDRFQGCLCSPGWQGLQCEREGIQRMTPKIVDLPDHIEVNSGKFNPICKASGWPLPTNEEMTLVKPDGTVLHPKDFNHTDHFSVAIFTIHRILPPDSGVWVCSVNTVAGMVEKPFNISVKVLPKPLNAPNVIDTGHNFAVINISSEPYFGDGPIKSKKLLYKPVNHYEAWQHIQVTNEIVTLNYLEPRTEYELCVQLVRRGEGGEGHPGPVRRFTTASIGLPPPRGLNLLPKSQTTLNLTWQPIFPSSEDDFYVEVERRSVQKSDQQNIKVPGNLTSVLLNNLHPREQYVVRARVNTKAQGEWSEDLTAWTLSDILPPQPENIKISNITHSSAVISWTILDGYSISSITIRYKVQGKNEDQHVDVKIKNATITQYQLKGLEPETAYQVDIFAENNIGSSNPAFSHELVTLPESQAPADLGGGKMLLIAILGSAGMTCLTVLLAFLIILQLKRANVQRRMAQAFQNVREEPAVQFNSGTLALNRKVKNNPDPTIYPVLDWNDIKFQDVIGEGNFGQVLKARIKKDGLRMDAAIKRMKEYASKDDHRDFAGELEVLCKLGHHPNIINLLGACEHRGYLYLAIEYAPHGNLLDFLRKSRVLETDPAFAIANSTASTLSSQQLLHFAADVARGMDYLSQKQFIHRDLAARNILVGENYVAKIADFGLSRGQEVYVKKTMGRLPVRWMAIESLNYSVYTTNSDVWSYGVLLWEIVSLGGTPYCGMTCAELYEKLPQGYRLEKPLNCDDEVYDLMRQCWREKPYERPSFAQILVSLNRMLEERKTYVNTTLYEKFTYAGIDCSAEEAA
Sequence of PDK1 (O15530 whole entry): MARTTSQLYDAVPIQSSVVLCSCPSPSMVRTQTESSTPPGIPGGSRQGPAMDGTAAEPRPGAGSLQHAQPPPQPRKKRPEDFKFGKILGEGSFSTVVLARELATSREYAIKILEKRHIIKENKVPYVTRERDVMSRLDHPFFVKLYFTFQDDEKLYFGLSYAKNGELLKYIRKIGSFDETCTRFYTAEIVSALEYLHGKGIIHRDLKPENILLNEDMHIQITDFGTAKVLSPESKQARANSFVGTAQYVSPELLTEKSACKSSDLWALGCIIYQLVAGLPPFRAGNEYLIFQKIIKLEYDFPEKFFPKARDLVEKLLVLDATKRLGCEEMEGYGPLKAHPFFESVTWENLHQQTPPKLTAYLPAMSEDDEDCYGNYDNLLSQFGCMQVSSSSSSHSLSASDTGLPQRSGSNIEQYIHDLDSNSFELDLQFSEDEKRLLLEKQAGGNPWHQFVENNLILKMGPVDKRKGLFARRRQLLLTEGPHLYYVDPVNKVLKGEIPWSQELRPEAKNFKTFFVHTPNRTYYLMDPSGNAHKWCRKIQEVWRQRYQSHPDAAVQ

| Structure (SMILES) | effect on ozone-induced M2 receptor dysfunction [1] | Ki (JAK3) [nM] | Ki (JAK2) [nM] | Ki (PKA) [nM] | Ki (PDK1) [nM] | Ki (FLT3) [nM] | Ki (MAPKAP2) [nM] | Ki (cMET) [nM] | Ki (PIM1) [nM] | Ki (IRAK) [nM] | bronchoconstriction in response to intravenous acetylcholine ([2]; air-exposed, 30 mg/kg ip) | effect on ozone-induced potentiation of bronchoconstriction to intravenous acetylcholine [2] | Ki (TIE2) [nM] | Ki (EphA) [nM] |
| --- | --- | --- | --- | --- | --- | --- | --- | --- | --- | --- | --- | --- | --- | --- |
| Fc1ccc(-c2noc(CN3CCCCC3)c2-c2ccnc(NC3CCCCC3)n2)cc1 [V-05-015] | completely protected M2 receptor function | > 1000 | > 1000 | > 1000 | > 1000 | > 1000 | > 1000 | > 1000 | > 1000 | > 1000 | hyperreactive to intravenous acetylcholine | attenuated ozone-induced smooth muscle hyperreactivity |  |  |
| OC1CCN(Cc2onc(-c3ccc(F)cc3)c2-c2ccnc(NC3CCCCC3)n2)CC1 [V-05-013] | partially prevented M2 receptor dysfunction | > 1000 | > 1000 | > 1000 |  | > 1000 | > 1000 | > 1000 | > 1000 | > 1000 |  | not blocked | > 1000 | > 1000 |
| OC[C@@H]1CCCN1Cc1onc(-c2ccc(F)cc2)c1-c1ccnc(NC2CCCCC2)n1 [V-05-014] | completely protected M2 receptor function | > 1000 |  | > 1000 | > 1000 |  | > 1000 | > 1000 | > 1000 | > 1000 |  | not blocked | > 1000 | > 1000 |
